Results published in patent US20220288052A1, “COMPOUND FOR COMBINATION TREATMENT” (priority 2019, published 2022).

Legend:
[1] = molecular target: CYP 2D6 (Homo sapiens, UniProt P10635); experiment: CYP450 inhibition, cocktail of selective substrates, 2D6; type: in vitro ADME; details: CYP 2D6, Bufuralol to 1′-hydroxybufuralol; read-out: IC50 of compound (I)
Protocol: (§1) Compound (I) was tested for CYP450 inhibition using a cocktail of selective substrates. […] This might be addressed later in a clinical study.

[2] = tested on: brain levels of serotonin (5-HT); experiment: In vivo microdialysis, 5-HT; set-up: species or system rat
Protocol: The purpose of the present study was to examine, by in vivo microdialysis technique, the effects after administration of compound (I) on brain levels of serotonin, noradrenalin and dopamine within the ventral hippocampus (Hipp), prefrontal cortex (PFC), striatum (STR) and nucleus accumbens (N.Acc) of anaesthetized rats and mice. […] Compound (I) was tested following subcutaneous injections at dose levels between 0.25-30 mg/kg.

[3] = molecular target: SERT (Homo sapiens, UniProt P31645); experiment: MDS LeadProfilingScreen, SERT; type: binding
[4] = Metabolic stability in liver microsomes, rat; type: in vitro ADME
Protocol: The metabolic stability of compound (I) was tested in liver microsomes from all in house available species at 1 and 5 μM. One metabolite of 16 mass units higher than parent, was found in all incubations, except with human liver microsomes.

[5] = molecular target: T1, Serotonin 5-HT3 (Homo sapiens, UniProt P46098); experiment: MDS LeadProfilingScreen, Serotonin 5-HT3; type: binding
T1 sequence (P46098 24-478): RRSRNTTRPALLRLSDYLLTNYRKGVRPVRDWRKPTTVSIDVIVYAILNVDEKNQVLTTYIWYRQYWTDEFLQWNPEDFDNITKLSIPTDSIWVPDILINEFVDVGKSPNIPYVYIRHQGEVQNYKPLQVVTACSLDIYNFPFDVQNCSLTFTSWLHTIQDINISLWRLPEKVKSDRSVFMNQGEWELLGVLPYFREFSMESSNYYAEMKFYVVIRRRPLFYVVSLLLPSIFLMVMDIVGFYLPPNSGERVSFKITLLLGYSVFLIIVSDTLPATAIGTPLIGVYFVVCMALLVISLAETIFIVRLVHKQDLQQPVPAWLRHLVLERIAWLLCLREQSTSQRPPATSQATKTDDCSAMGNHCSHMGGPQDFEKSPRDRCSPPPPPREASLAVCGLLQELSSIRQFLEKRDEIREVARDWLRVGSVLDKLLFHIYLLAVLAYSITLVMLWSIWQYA

[6] = molecular target: NA transporter (Rattus norvegicus, UniProt Q63380); experiment: ^3H-Nisoxetine binding, rat
Description: (§2) Compound (I) has been characterized as a monoamine reuptake inhibitor, based on the profile in a series of functional assays (Table 2).

[7] = tested on: plasma protein; experiment: Plasma protein binding by equilibrium dialysis, rat; type: in vitro ADME
Protocol: The plasma protein binding was tested in rat, mouse, dog and human plasma by equilibrium dialysis. The plasma protein binding of this compound is remarkably low (Table 24).

[8] = in vivo; details: male, Wistar, rat, plasma
[9] = molecular target: CYP 2C19 (Homo sapiens, UniProt P33261); experiment: CYP450 inhibition, cocktail of selective substrates, 2C19; type: in vitro ADME; details: CYP 2C19, Omeprazole to 5-hydroxyomeprazole; read-out: IC50 of compound (I)
Protocol: as §1

[10] = Cardiovascular safety in anaesthetised dogs
Protocol: Data presented are mean±s.e. mean where n=4 for all time points, excluding D2t7 where n=3, D3t7 where n=2, and D4t7 and D4t26 where no data was available. Animals received 1, 3, 10, and 30 mg/kg compound (I) as 4 intravenous infusions (starting at t0, D1t30, D2t30 and D3t30, respectively). Each dose was administered over 5 min, using an infusion pump, and the dose volume for each treatment was 2 ml/kg, with the exception of the fourth dose which was 3 ml/kg.
Data presented are mean±s.e. mean where n=4 for all time points, excluding D4t7 and D4t26 where no data was available. Animals received 1, 3, 10, and 30 mg/kg compound (I) as 4 intravenous infusions (starting at t0, D1t30, D2t30 and D3t30, respectively). Each dose was administered over 5 min, using an infusion pump, and the dose volume for each treatment was 2 ml/kg, with the exception of the fourth dose which was 3 ml/kg.

[11] = 14-day repeat-dose study in NMRI mice; type: in vivo, mouse
Protocol: In a 14-day repeat-dose study 4 groups of 8 male and 8 female NMRI mice were treated daily with compound (I) at doses of 15, 30, and 60 mg/kg p.o. (Groups 2, 3 and 4), or vehicle, 5% glucose s.c. (Group 1). A satellite group 90 mg/kg p.o. (group 5) was conducted accordingly to increase the exposure and efficacy.

[12] = molecular target: 5-HT transporter (Rattus norvegicus, UniProt P31652); experiment: ^3H-Citalopram binding, rat
Description: as §2

[13] = Linearity after single s.c. dose in rat; type: in vivo; details: for AUC(0-inf) / Cmax / bioavailability / half-life: Wistar, rat; for AUC(0-inf) / Cmax / bioavailability / half-life / Tmax: plasma, sc; for half-life: read-out: T½ (converted); for Tmax: male Wistar rat, 5% Tween 80
[14] = 60 mg/kg p.o. 14 days (Group 4)
[15] = 90 mg/kg p.o. 14 days (Group 5)

SERT, sequence (P31645 whole entry): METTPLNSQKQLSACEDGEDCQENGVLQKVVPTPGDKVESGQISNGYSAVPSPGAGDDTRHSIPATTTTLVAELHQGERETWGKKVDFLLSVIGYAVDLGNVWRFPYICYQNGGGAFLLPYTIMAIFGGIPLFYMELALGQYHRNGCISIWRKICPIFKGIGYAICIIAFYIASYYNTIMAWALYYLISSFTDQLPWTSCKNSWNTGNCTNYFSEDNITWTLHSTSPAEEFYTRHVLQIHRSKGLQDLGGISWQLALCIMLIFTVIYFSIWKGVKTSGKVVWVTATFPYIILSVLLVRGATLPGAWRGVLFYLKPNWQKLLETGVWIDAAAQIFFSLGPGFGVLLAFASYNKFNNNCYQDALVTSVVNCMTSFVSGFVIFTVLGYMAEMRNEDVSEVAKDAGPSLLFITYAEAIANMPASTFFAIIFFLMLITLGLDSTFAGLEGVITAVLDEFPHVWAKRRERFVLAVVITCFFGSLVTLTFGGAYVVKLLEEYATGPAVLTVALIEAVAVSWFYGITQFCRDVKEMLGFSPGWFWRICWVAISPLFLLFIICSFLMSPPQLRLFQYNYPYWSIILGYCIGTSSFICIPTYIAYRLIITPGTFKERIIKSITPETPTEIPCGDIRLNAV
CYP 2C19, sequence (P33261 whole entry): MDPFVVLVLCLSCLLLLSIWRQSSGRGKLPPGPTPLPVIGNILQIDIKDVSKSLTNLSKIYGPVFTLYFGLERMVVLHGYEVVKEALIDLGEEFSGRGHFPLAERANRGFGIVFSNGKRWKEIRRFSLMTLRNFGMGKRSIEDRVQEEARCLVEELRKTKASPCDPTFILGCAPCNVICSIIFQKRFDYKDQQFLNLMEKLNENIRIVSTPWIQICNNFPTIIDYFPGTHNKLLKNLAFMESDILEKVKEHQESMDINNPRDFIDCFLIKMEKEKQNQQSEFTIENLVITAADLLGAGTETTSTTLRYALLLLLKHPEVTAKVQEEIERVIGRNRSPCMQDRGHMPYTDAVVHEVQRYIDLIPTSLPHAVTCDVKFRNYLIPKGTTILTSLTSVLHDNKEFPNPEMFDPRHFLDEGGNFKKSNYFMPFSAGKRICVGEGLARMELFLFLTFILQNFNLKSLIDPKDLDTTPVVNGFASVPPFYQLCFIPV
5-HT transporter, sequence (P31652 whole entry): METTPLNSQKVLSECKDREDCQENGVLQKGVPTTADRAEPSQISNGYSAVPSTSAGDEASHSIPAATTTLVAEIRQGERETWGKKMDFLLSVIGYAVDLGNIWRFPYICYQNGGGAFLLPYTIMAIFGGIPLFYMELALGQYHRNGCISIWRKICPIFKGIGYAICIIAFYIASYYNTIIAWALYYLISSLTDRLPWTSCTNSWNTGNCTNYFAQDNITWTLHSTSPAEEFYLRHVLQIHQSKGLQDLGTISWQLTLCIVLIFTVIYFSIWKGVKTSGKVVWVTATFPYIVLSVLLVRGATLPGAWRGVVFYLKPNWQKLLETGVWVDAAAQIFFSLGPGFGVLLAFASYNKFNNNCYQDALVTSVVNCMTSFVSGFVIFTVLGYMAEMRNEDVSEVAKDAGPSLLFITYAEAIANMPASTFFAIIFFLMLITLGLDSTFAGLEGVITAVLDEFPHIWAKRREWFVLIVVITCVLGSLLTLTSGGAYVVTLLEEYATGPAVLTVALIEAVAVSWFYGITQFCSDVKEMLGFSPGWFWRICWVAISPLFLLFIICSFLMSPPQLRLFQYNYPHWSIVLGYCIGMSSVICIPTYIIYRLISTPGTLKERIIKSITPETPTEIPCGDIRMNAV
CYP 2D6, sequence (P10635 whole entry): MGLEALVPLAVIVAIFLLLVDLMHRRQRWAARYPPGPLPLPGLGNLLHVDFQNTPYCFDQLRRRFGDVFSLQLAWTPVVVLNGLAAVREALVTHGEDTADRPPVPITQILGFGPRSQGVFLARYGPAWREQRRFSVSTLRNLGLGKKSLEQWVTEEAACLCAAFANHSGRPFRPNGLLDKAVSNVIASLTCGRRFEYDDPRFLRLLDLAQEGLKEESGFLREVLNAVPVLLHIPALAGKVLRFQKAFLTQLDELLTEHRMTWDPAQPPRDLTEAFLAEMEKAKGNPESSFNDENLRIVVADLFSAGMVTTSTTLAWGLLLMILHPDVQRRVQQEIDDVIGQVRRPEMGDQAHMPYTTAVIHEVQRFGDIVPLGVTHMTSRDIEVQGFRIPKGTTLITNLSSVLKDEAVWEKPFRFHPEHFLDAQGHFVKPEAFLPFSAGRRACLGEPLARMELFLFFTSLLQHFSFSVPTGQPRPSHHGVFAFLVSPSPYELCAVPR
NA transporter, sequence (Q63380 1-617): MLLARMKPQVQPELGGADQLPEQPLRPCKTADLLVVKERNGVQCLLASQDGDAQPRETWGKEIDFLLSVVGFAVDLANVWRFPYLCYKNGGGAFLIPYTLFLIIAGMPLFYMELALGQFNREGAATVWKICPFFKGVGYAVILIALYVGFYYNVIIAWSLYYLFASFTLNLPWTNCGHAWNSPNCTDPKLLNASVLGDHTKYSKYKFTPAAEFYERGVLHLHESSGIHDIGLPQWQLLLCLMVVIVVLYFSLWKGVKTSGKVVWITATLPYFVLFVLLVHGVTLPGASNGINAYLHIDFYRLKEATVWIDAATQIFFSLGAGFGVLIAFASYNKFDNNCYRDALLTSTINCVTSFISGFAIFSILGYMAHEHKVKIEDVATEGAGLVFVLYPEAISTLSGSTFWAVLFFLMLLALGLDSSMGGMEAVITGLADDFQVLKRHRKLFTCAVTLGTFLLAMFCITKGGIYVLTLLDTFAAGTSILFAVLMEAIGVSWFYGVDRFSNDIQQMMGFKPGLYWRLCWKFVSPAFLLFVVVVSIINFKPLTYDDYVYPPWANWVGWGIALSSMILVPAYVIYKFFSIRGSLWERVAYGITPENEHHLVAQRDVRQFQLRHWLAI

O=c1ccc2ccc(O[C@@H]3C[C@H]4CC[C@@H](C3)N4)cc2o1 [Compound (I), exo-7-(8-aza-bicyclo[3.2.1]oct-3-yloxy)-chromen-2-one]
IC50 [1]: 44000 nM
5-HT (AUC0-160 min) ([2]; Hippocampus, 3 mg/kg s.c., 3 mg/kg): 433±53%
5-HT (AUC0-160 min) ([2]; N.Acc, 10 mg/kg s.c.): 151 ± 17%
5-HT (AUC0-160 min) ([2]; Pre-frontal cortex, 0.25 mg/kg s.c., 0.25 mg/kg): 190±15%
5-HT (AUC0-160 min) ([2]; Pre-frontal cortex, 1 mg/kg s.c., 1 mg/kg): 252±48%
5-HT (AUC0-160 min) ([2]; Pre-frontal cortex, 10 mg/kg s.c., 10 mg/kg): 263±47%
5-HT (AUC0-160 min) ([2]; Pre-frontal cortex, WAY100365 0.1 mg/kg + compound (I) 0.25 mg/kg): 253 ± 32%
5-HT (AUC0-160 min) ([2]; Striatum, 3 mg/kg s.c.): 138 ± 31%
5-HT (AUC0-160 min) ([2]; Striatum, 10 mg/kg s.c.): 170 ± 12%
Ki [3]: 0.37 nM
inhibition at 10 µM ([3]; SERT, Human, 10 μM): 103%
Stability at 1 μM [4]: 40%
Stability at 5 μM [4]: 61%
Ki [5]: 1040 nM
Separation to transporter hDAT ([5]; 5-HT3 Ki versus hDAT Ki 155 nM): x6.7
Separation to transporter hNET ([5]; 5-HT3 Ki versus hNET Ki 594 nM): x1.7
inhibition at 10 µM ([5]; Serotonin 5-HT3, Human, 10 μM): 86%
Ki [6]: 1300 nM
fraction unbound at 81 ng/ml ([7]; 81 ng/ml): 0.566
fraction unbound at 271 ng/ml ([7]; 271 ng/ml): 0.65
fraction unbound at 813 ng/ml ([7]; 813 ng/ml): 0.582
fraction unbound at 2710 ng/ml ([7]; 2710 ng/ml): 0.635
Vd ([8]; intravenous, 2.5 mg/kg): 5.6 L/kg
clearance ([8]; intravenous, 2.5 mg/kg): 137 mL/min/kg
AUC(0-inf) ([8]; iv, 2.5 mg/kg): 306 ng·h/mL
half-life ([8]; iv, 2.5 mg/kg): 48 min
bioavailability ([8]; oral, 5 mg/kg): 3%
AUC(0-inf) ([8]; po, 5 mg/kg): 17 ng·h/mL
Cmax ([8]; po, 5 mg/kg): 8 ng/mL
Tmax ([8]; po, 5 mg/kg): 30 min
IC50 [9]: > 100000 nM
Heart rate ([10]; 1, 3, 10 and 30 mg/kg i.v.): Dose-dependent increases
RR interval ([10]; 1, 3, 10 and 30 mg/kg i.v.): dose-dependent decreases
Arterial blood pressure (mean, systolic and diastolic) ([10]; 1, 3, 10 and 30 mg/kg i.v., apparent decrease following 10 and 30 mg/kg): No consistent changes
PR interval and QRS duration ([10]; 1, 3, 10 and 30 mg/kg i.v., potential PR shortening at 30 mg/kg): relatively unaffected
concentration at 5 min ([10]; beagle, dog, plasma, intravenous): 6500 to 15000 ng/mL
QTcF and QTcV intervals ([10]; corrected for heart rate/RR interval, also when paced at 90 or 110 bpm): clear dose-dependent increase
Activity [11, 14]: increase in activity in both male and female
Body weight [11, 14]: significant decrease in body weight in the female group
Relative liver weight [11, 14]: significant decrease in relative liver weight in both sexes
Activity [11, 15]: increase in activity in both male and female
Body weight and relative liver weight [11, 15]: significant decrease in body weight and in relative liver weight in both sexes
Macroscopic findings at termination ([11]; 15 up to 90 mg/kg/day p.o. 14 days): no treatment-related macroscopic findings
Ki [12]: 0.28 nM
AUC(0-inf) ([13]; 1 mg/kg s.c.): 125 ng·h/mL
Cmax ([13]; 1 mg/kg s.c.): 69 ng/mL
bioavailability ([13]; 1 mg/kg s.c., compared to 10 mg/kg i.v. in same vehicle): 117%
half-life ([13]; 1 mg/kg s.c.): 40.2 min
Cmax ([13]; 5 mg/kg s.c.): 320 ng/mL
bioavailability ([13]; 5 mg/kg s.c., compared to 10 mg/kg i.v. in same vehicle): 113%
half-life ([13]; 5 mg/kg s.c.): 46.2 min
Cmax ([13]; 10 mg/kg s.c.): 729 ng/mL
bioavailability ([13]; 10 mg/kg s.c., compared to 10 mg/kg i.v. in same vehicle): 108%
half-life ([13]; 10 mg/kg s.c.): 40.8 min
bioavailability ([13]; s.c. dosing in rats): ~100%
AUC(0-inf) ([13]; male, 5 mg/kg s.c.): 604 ng·h/mL
AUC(0-inf) ([13]; male, 10 mg/kg s.c.): 1150 ng·h/mL
Tmax ([13]; 1 mg/kg s.c.): 60 min
Tmax ([13]; 5 mg/kg s.c.): 60 min
Tmax ([13]; 10 mg/kg s.c.): 30 min
Linearity of kinetics (AUC versus dose) ([13]; rats s.c., relatively low doses, single dose): very nice linear kinetics
